By MIC is commonly meant the smallest concentration in the dilution series that meets the test's criterion for growth inhibition.

In brackets after ≈: the same amount, converted by molar mass.

Series [1] has as its system FQR S. aureus (NRS3, FQR). Briefly: MIC, microdilution broth assay, FQR MRSA NRS3. It is filed as cell-based. The following applies: NRS3, S84L GyrA and S80F ParC, three independent replicates.
Series [2] addresses T1, S83L E. coli DNA gyrase (Escherichia coli, UniProt P0AES4+P0AES6, S83L).
T1 construct: His tag (pTRCHisA vector; purified on Ni-NTA); made in house; host or cells: E. coli One Shot BL21 Star (DE3)
It is filed as biochemical. The following applies: DNA cleavage assay.

The test system of series [3] is human erythrocytes. The series can be described thus: In-vitro haemolysis assay. The settings on record: human red blood cells, 2 h at 37°C, 160 µg mL-1 or highest concentration solubility allowed. The class given is cell-based. As to the method: Haemolysis assays were performed as previously described. Briefly, assays were performed using human erythrocytes within 3 days of receipt. One millilitre of human blood purchased from Bioreclamation, Inc. (Hicksville, NY) was centrifuged (10,000 × g, 2 min). The pellet was washed three times with sterile saline (0.9% NaCl in water) by repeated gentle suspension and centrifugation. The pellet was resuspended in RBC buffer (10 mM Na2HPO4, 150 mM NaCl, 1 mM MgCl2 pH 7.4). To evaluate haemolytic activity of DNM and derivatives, 1 μl either 3.2 mg ml^−1 DMSO stock (or the most concentrated stock of the compound available if not soluble at 3.2 mg ml^−1 in DMSO) was transferred to 0.5 ml Eppendorf tubes containing 19 μl RBC buffer. Negative control tubes contained 1 μl DMSO and 19 μl RBC buffer, and positive control tubes contained 1 μl DMSO and 19 μl sterile deionized water. A suspension of washed erythrocytes (10 μl) was added to each tubes and samples were incubated at 37 °C for 2 h. Samples were centrifuged at 10,000 × g for 2 min and the supernatants from each sample (25 μl) were transferred to a clear, sterile 384-well plate. The absorbance of these supernatants was measured at 540 nm using a SpectraMaxPlus384 absorbance plate reader (Molecular Devices). Per cent haemolysis of each sample was calculated relative to the average absorbance values measured for positive controls.

Series [4] concerns the target T2, human topoisomerase II (Homo sapiens, UniProt P11388).
T2 construct: purchased Inspiralis
Briefly: Human topoisomerase decatenation assay. The class given is biochemical. The following applies: decatenation assay. As to the method: The decatenation assay was performed with the Human Topo II Decatenation Assay Kit (Inspiralis), according to the manufacturer's instructions, with minor modifications. First, a master mix was made containing 2 μl of 10 × assay buffer (500 mM Tris-HCl pH 7.5, 1250, mM NaCl, 100 mM MgCl2, 50 mM DTT, 1,000 μg ml^−1 albumin), 0.67 μl of 30 mM ATP, 1.34 μl of 0.1 ng μl^−1 kDNA, and 14.3 μl of nuclease-free water per sample is made. DMSO or 30 × compound is added to a 0.5-ml Eppendorf tube (0.67 μl per tube). The master mix is then added to each tube (18.3 μl per tube). Finally, 1 U of human topoisomerase (1 μl of 1 U μl^−1 stock) is added to each tube for a final volume of 20 μl. The tubes are then incubated at 37 °C for 30 min. Reactions are stopped by the addition of 20 μl of 24:1 chloroform:isoamyl alcohol and 20 μl of stop dye (40% sucrose, 1 mM EDTA, 100 mM Tris-HCl pH 7.5, 0.5 μg ml^−1 bromophenol blue). Samples were run on 1% agarose gels containing 0.5 μg ml^−1 ethidium bromide for 1 h at 110 V or until the dye front was approximately halfway down the gel. Gels were imaged on a Molecular Imager Gel Doc XR+ (Biorad).

Series [5] concerns Herring Sperm DNA. The series can be described thus: Intercalation assay (ethidium bromide displacement). The class given is binding. How it is done: Intercalation assays were performed as previously described. The ability of DNM-2 to intercalate into DNA was measured by an ethidium bromide displacement assay. Herring Sperm DNA (34 μg ml^−1 final) was premixed with buffer containing ethidium bromide (50 mM Tris base, 100 mM NaCl, 1 mM EDTA, 5 μM EtBr pH 7.5). Ninety-five microlitres of this solution was added to a 96-well plate containing 5 μl of DMSO solutions of compounds. […] Doxorubicin was used as a positive control. The reactions were allowed to incubate for 30 min. Fluorescence was then read on a Gemini microplate reader (Molecular Devices, excitation=545 nm, emission=595 nm).

Series [6] can be described thus: In-vivo toxicity assessment, once daily for 10 days. Also on record: species or system BALB/c mice. The following applies: mice. How it is done: Toxicity was assessed as previously described. Specifically, heparinized whole blood was collected for assessment of total white blood cells, neutrophils, lymphocytes, haematocrit, platelets, creatinine, blood urea, nitrogen, albumin, alanine aminotransferase, alkaline phosphatase and total bilirubin. Mice were euthanized by overdosing with ketamine/xylazine and the heart, lung, kidney, liver, spleen, gastrointestinal tract and the brain were collected for histopathology. Tissue samples were fixed 24 h in 10% neutral buffered formalin, processed and paraffin embedded, sectioned (5 μm thickness) and stained with haematoxylin and eosin. All slides were systematically evaluated by a single board-certified veterinary anatomic pathologist (SL) for evidence of acute or chronic inflammation and toxicity. All lesions were characterized, recorded and scored for severity (minimal=1, mild=2, moderate=3, marked=4, and severe=5).

The mark [7] stands for this setting: 50 mg kg-1 oral gavage once daily for 10 days.
Where [8] appears, read: 50 mg kg^−1 oral gavage once daily for 10 days.

As for `Cc1cc(=O)n(C)c2c3c4c(cc12)c(C)cc(=O)n4CO3` [DNM, deoxynybomycin], in series [1], the “MIC against S. aureus NRS3” value amounted to 0.03 µg/mL (≈ 0.106 µM). The minimum inhibitory concentration (MIC) in series [1] (Staphylococcus aureus, read-out: MIC against S. aureus NRS3) came to 0.03 µg/mL (≈ 0.106 µM). In series [2], the “concentration giving significant buildup of OC DNA (P<0.05)” value was determined as 0.17 µM. The haemolysis entry in series [3] is given as “none of these compounds induce haemolysis”.

`CCn1c(=O)cc(C)c2cc3c(C)cc(=O)n4c3c(c21)OC4` [DNM-2]: the “concentration inhibiting human topoisomerase II” value in series [4] was over 30 µM. In addition, in series [5], the “concentration with significant DNA intercalation” value is over 30 µM. Moreover, in series [6] (setting [7]), the ALP is 60 ± 10 U/L, the ALT was 36 ± 1 U/L, the Albumin turned out to be 3.2 ± 0.1 g/dL and the “BUN (Urea)” value came to 32.0 ± 0.4 mg/dL. In addition, in series [6] (setting [7]), the Creatine worked out at 0.2 ± 0.0 mg/dL, the Globulin amounted to 2.62 ± 0.05 g/dL, the Hematocrit is reported as 40 ± 1% and the Hemoglobin came to 14.2 ± 0.3 g/dL. Besides, in series [6] (setting [7]), the Lymphocyte was 81 ± 3 % of WBC, the “Mean Cell Volume” value worked out at 47.3 ± 0.4 fL, the Neutrophil was 18 ± 3 % of WBC and the RBC is listed as 8.5 ± 0.2 X106/µL. The compound also returned a WBC in series [6] (setting [7]) of 3800 ± 300 cells/µL. Also, the Platelet in series [6] (50 mg kg-1 oral gavage once daily for 10 days, counts low because of platelet clumps) was 60,000 ± 10,000 cells/µL. The “Total Bilirubin” value in series [6] (50 mg kg-1 oral gavage once daily for 10 days, increased also in vehicle due to hemolysis during blood collection) is 0.7 ± 0.1 mg/dL. Besides, in series [6] (setting [8]), the “adipocytes and triglyceride levels” value was “Increased vacuolation of white and brown adipocytes with a minimal increase in triglyceride levels”; the “haematological and non-haematological toxicity markers” value is “No clinically significant evidence for myelosuppression, renal injury or hepatic toxicity was identified”; the “histopathology of kidney, brain, lung, liver, spleen, heart and stomach” value was “did not reveal any evidence of toxicity”; the “histopathology of small intestine sections” value was “mild intestinal dilation associated with villi atrophy”.

Values taken from PMC4421842 (Nature Communications, 2015).
